We go through six compounds from patent US11396497B2, “Proteasome inhibitors” (New Mexico Tech University Research Park Corporation, priority 2018, dated 2022).

Read-outs that look alike come from different tables or passages of the source.

In series [1] the target is T1, immunoproteasome iβ5 subunit (Homo sapiens, UniProt P20618+P28062).
T1 construct: purchased Enzo Life Sciences
Description: Subunit selectivity, purified immunoproteasome iβ5. In kind it is biochemical. How it is done: (§1) The compounds were diluted with lysis buffer; 10 μL of the compound-containing solution was added to the test wells at ten times the final concentration. […] The results are reported as the average of at least 3 technical replicates of IC50 values for proteasome inhibition.
(§2) Values and standard deviations were calculated from an assay performed in biological triplicate.

Series [2] addresses T2, yeast proteasome yβ2 subunit (Saccharomyces cerevisiae, UniProt P25043+P25451).
T2 construct: measured using 8 μg/mL of purified yCP or iCP
Put plainly: Subunit selectivity, purified yeast proteasome yβ2. In kind it is biochemical. How it is done: as §1, §2

Series [3] addresses T3, yeast proteasome yβ1 subunit (Saccharomyces cerevisiae, UniProt P25043+P38624).
T3 construct: measured using 8 μg/mL of purified yCP or iCP
Put plainly: Subunit selectivity, purified yeast proteasome yβ1. In kind it is biochemical. How it is done: as §1, §2

The test system of series [4] is ubiquitinated proteins in MCF7 cells. Description: Western blot of ubiquitinated proteins. In kind it is cell-based, human. How it is done:
The cells were incubated for 9.5 hrs at 37° C. and 5% CO2. After washing with PBS twice, cells were scraped, pelleted and lysed with CytoBuster™ Protein Extraction Reagent \ containing 10 μM compound 8, 10 μM Na3VO4, 0.017 mg/mL Aprotinin, 1 mM PMSF, and 1% Protease Inhibitor Cocktail. Thereafter 30 μg of protein in sample buffer (50 mM Tris-HCl, 2% SDS, 10% Glycerol, 1% β-mercaptoethanol, 12.5 mM EDTA, 0.02% Bromophenol Blue, pH 6.8) that had been boiled at 90° C. for 5 min, was electrophoresed using 6/8% SDS-PAGE, and the protein transferred to a […] PVDF membrane using a BioRad Trans-Blot® SD at 15 V for 17 minutes. The membrane was blocked with 1× casein buffer (Diluted 1:10 in water from casein blocking buffer 10×), and probed with either the polyclonal rabbit anti β-Actin (1:500) or the polyclonal rabbit anti-ubiquitin antibody (1:300), and stained with goat anti-rabbit IgG (H+L) HRP conjugate (1:3000) secondary antibodies. Antibody-recognized bands were visualized by a standard horseradish peroxidase chemiluminescent assay with an ECL kit.

Series [5] deals with T4, yeast proteasome yβ5 subunit (Saccharomyces cerevisiae, UniProt P23724+P30656).
T4 construct: measured using 8 μg/mL of purified yCP or iCP
Description: Subunit selectivity, purified yeast proteasome yβ5. In kind it is biochemical. The method, then: as §1, §2

The test system of another series is RPMI 8226 cells. Description: MTT assay cytotoxicity RPMI 8226. Particulars: Homo sapiens.
Series [6] has as its system Jurkat cells. Put plainly: Apoptosis assay (Annexin V-FITC, flow cytometry). In kind it is cell-based, human. How it is done: Apoptosis assay: 1 mL of Jurkat cells, at a density of 500,000 cells per milliliter, was added to 12 wells of a 24 well microtiter plate. Cells were treated immediately using a serial dilution of the synthesized proteasome inhibitors, the benzyl ester of Cystargolide B and the belactosin-cystargolide hybrid molecule. 10 μM Paclitaxel and 0.2 μg/mL Doxorubicin hydrochloride were used as positive apoptosis controls and non-treated cells were used as a negative control. The cells were then incubated for 24 h at 37° C. and 5% CO2. The following day, Annexin V-FITC conjugate was used to assay for the expression of phosphatidyl serine on the […] of the cellular membrane. The cells were briefly pelleted, aspirated, and resuspended in 300 μL of a reaction mixture containing 0.2 μL/mL of the Annexin V FITC solution, 2 mM CaCl2 to enable binding, and 2 μg/mL propidium iodide as an indicator of cell permeability. Each sample was incubated at 37° C. for 20 minutes, and then analyzed by flow cytometry. Single, whole cells were selected based on the forward and the side-scatter. With an excitation of 488 nm Annexin V-FITC binding was identified using FL1 533 nm emission. Propidium iodide staining was selected based on FL2 585 nm emission. […] Measurements were taken in biological triplicate for each sample, and the results were confirmed in technical triplicate.
(In flow cytometry, cells or beads pass a laser one at a time.)

The test system of series [7] is Jurkat cells. Put plainly: Cell cycle assay (flow cytometry). In kind it is cell-based, human. The method, then: Vybrant® DyeCycle™ Orange Stain was used for the cell cycle assay. The amount of fluorescence of DNA was used as a relative measure of a cell's stage in the cell cycle. 500,000 Jurkat cells were added to wells on a 24 well microtiter plate in 1 mL of supplemented RPMI media. The cells were then treated with Compound 1 (TABLE 2). Using the cells treated for 12 and 24 hours, stained DNA fluorescence was measured via flow cytometry. The cells were taken from each well, pelleted briefly, aspirated, resuspended in 300 μL of 2 μL/mL Vybrant® DyeCycle™ Orange Stain, incubated at 37° C. for 15 minutes, and analyzed by flow cytometry. Selecting whole cells based on forward and side scatter, stained DNA fluorescence was excited at 488 nm and measured at an emission wavelength of 585 nm, using amount of fluorescence as a means of distinguishing between populations of cells. Populations were identified as G1 for the peak associated with the lowest amount of fluorescence, S phase for increased fluorescence appearing as a shoulder off of the G1 peak, and G2/M for approximately 2 times the fluorescence as the G1 peak. Measurements were taken in biological triplicate and confirmed in technical triplicate.

Series [8] deals with T5, chymotrypsin-like activity of the 26S proteasome (Homo sapiens, UniProt P28074).
T5 construct: endogenous in cells; host or cells: Jurkat (ATCC TIB-152, E6-1 clone) cell lysate
T5 sequence (P28074 60-263): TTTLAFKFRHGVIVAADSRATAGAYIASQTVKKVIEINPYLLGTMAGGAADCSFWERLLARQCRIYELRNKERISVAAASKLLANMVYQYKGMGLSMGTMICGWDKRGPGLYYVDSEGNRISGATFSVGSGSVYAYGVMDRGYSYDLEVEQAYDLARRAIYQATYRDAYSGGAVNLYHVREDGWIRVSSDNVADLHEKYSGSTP
Description: Proteasome assay, chymotrypsin-like (ChT-L) activity, Suc-LLVY-AMC, Jurkat cell lysate. In kind it is biochemical. Particulars: ± S.D., read-out: Proteasome Inhibition ChT-like IC50. The method, then:
(§3) The lysate was stored at −80° C. until the sample was used for the proteasome assay.
as §1

For another series, the system named is MCF7 cells. Put plainly: MTT assay cytotoxicity MCF7. Particulars: Homo sapiens. Background: Formazan colour is commonly taken as a measure of viable cells.
For series [9], the target named is T6, trypsin-like activity of the 26S proteasome (Homo sapiens, UniProt Q99436).
T6 construct: endogenous in cells; host or cells: Jurkat (ATCC TIB-152, E6-1 clone) cell lysate
T6 sequence (Q99436 44-277): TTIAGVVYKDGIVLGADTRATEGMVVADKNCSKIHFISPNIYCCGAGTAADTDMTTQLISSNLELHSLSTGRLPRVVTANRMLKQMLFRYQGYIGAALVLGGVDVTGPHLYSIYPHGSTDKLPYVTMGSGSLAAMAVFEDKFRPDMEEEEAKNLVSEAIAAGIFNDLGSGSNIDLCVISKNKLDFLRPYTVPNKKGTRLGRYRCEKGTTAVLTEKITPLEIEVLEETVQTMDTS
Description: Proteasome assay, trypsin-like (T-L) activity, SUC-RLR-AMC, Jurkat cell lysate. In kind it is biochemical. How it is done:
as §3, §1

A further series has as its system MDA-MB-231 cells. Put plainly: MTT assay cytotoxicity MDA-MB-231. Particulars: Homo sapiens.
Series [10] has as its system cancer cells (MCF7, MDA-MB-231, RPMI 8226). Put plainly: MTT cytotoxicity, cell line not given.
The mark [11] stands for this setting: 8 μg/mL purified iCP, ± SD, read-out: iβ5 IC50.
Setting [12] is: 8 μg/mL purified yCP, ± SD, read-out: yβ2 IC50.
Setting [13] is: 8 μg/mL purified yCP, ± SD, read-out: yβ1 IC50.
[14] abbreviates: RPMI-8226, 48 h, read-out: Cytotoxicity RPMI 8226 IC50.
Where [15] appears, read: MCF7, 48 h, read-out: Cytotoxicity MCF7 IC50.
Setting [16] is: MDA-MB-231, 48 h, read-out: Cytotoxicity MDA-MB-231 IC50.
[17] abbreviates: MCF7, read-out: Cytotoxicity MCF7 IC50.
Where [18] appears, read: MDA-MB-231, read-out: Cytotoxicity MDA-MB-231 IC50.

Description for MDA-MB-231 cells: (§4) The cells were incubated at 37° C. in a humidified atmosphere with 5% CO2.
(§5) 100 μL of cells were added to each well of a 96 well microtiter plate at a concentration of 4×10^4 cells/mL and incubated overnight to allow proper adhesion. (RPMI 8226 cells were plated at 4×10^5 cells/mL). The cells were treated with the panel of test compounds at a series of concentrations, along with vehicle control DMSO and untreated cells as controls. After 48 h incubation, 20 μL of MTT reagent (3-(4,5-dimethylthiazol-2-yl)-2,5-diphenyltetrazolium bromide) in PBS (5 mg/mL) was added to each well of the plates. The plate was incubated for 2 h at 37° C. For adherent cell lines, the media was removed from each well of the plate and the resulting formazan crystals dissolved in 100 μL of DMSO. For RPMI 8226 cells, 200 ul of DMF/SDS mix (50% DMF. 10% w/v SDS pH<4) was used to solubilize the formazan crystals. Optical density (OD) at 490 nm was measured using a microplate reader. Cells treated with 1 μM phenyl arsine oxide (PAO) served as a positive cell-killing control. Technical replicates of these assays were performed in biological quadruplicate, and the three best values were used for analysis in order to eliminate outliers. Data presented are the average IC50 value calculated from at least 3 technical replicates with the corresponding standard deviation.
Description for RPMI 8226 cells: as §4, §5

As to `CC(C)C1C(=O)OC1C(=O)N[C@H](C(=O)N[C@H](C(=O)O)C(C)C)C(C)C` (some centres unmarked) [CysB, Cystargolide B, reference compound], the figures for the IC50 in [1] (setting [11]), in series [2] (setting [12]) and in series [3] (setting [13]) were 681 ± 177 nM, 61600 ± 4840 nM and 10200 ± 780 nM, respectively.

On to `CC(C)[C@H](NC(=O)[C@@H]1OC(=O)[C@H]1C(C)C)C(=O)N[C@H](C(=O)OCc1ccccc1)C(C)C` [Compound 1], for which the IC50 in [1] was determined as 44.7 ± 12.8 nM; in [5] (8 μg/mL purified yCP, ± SD, read-out: yβ5 IC50), 37.2 ± 4.5 nM; in series [2] (setting [12]) it was 14600 ± 910 nM; with RPMI 8226 cells (setting [14]), 1310 ± 745 nM; in series [3] (setting [13]) it was 4180 ± 438 nM; in series [8] (Table 2, P1 analogues) it was 8.9 ± 6.2 nM. For the same compound, the IC50 stood at 8090 ± 4270 nM in the series on MCF7 cells (setting [15]); 1950 ± 901 nM in [9] (Table 2, P1 analogues, ± S.D., read-out: Proteasome Inhibition T-L-like IC50); 2790 ± 464 nM in the series on MDA-MB-231 cells (setting [16]). For the same compound, in [4], the “accumulation of ubiquitinated proteins” value was “accumulation of ubiquitinated proteins”. For the same compound, the induction of apoptosis entry in the series with Jurkat cells [6] is “induction of apoptosis”. Moreover, the cell cycle arrest result in the series with Jurkat cells [7] is reported as “cell cycle arrest in the G2/M phase”.

Take `CC[C@H](C)[C@@H]1C(=O)O[C@H]1C(=O)NCC(=O)N[C@H](C(=O)OCc1ccccc1)C(C)C` [Compound 10a, Benzyl ((2R,3S)-3-((S)-sec-butyl)-4-oxooxetane-2-carbonyl)glycyl-L-valinate]: the IC50 in the series with RPMI 8226 cells (setting [14]) is 840 ± 429 nM; in series [8] (Table 3, P2/P3 analogues) it was 3.8 ± 1.4 nM; with MCF7 cells (setting [15]), ~4000 nM; in [9] it was 256 ± 72 nM; in the series on MDA-MB-231 cells (setting [16]), 952 ± 262 nM. Moreover, the “concentration up to which complete cytotoxicity was not achieved” value in series [10] was > 100 µM.

Take `CC[C@H](C)[C@@H]1C(=O)O[C@H]1C(=O)N[C@H](C(=O)N[C@@H](COCc1ccccc1)C(=O)OCc1ccccc1)C(C)C` [Compound 10k, Benzyl O-benzyl-N-(((2R,3S)-3-((S)-sec-butyl)-4-oxooxetane-2-carbonyl)-L-valyl)-L-serinate]: the IC50 was 9.1 ± 2.7 nM in series [1] (setting [11]); 24.5 ± 3.9 nM in series [5]; > 50000 nM in series [2]; 50 ± 28 nM in the series with RPMI 8226 cells (setting [14]); 40.5 ± 1.66 nM in the series on RPMI 8226 cells (RPMI-8226, read-out: Cytotoxicity RPMI 8226 IC50); 17800 ± 2070 nM in series [3]. Besides, the IC50 in the series with MCF7 cells (setting [15]) worked out at 284 ± 132 nM; in the series with MCF7 cells (setting [17]) it was 178 ± 23.4 nM; in [9] (Table 3, P2/P3 analogues, ± S.D., read-out: Proteasome Inhibition T-L-like IC50), 1340 ± 334 nM; in the series with MDA-MB-231 cells (setting [16]), 90 ± 51 nM; in the series with MDA-MB-231 cells (setting [18]), 75.6 ± 3.49 nM. Moreover, in series [10], the “cytotoxicity IC50 for all three cell lines tested (in words)” value is given as “midrange nanomolar”. Also, in [10], the “times less cytotoxic than carfilzomib” value was “about 10 times”.

With `CC(C)C[C@H](NC(=O)[C@H](CCc1ccccc1)NC(=O)CN1CCOCC1)C(=O)N[C@@H](Cc1ccccc1)C(=O)N[C@@H](CC(C)C)C(=O)[C@@]1(C)CO1` [Carfilzomib, reference compound], the concentration for half-maximal inhibition (IC50) in series [2] was > 1000 nM; in series [3], > 1000 nM; in the series on MCF7 cells (setting [15]), 4 ± 1 nM; with MCF7 cells (setting [17]), 4.08 ± 0.056 nM; in the series with MDA-MB-231 cells (setting [16]) it was 4 ± 2 nM; with MDA-MB-231 cells (setting [18]), 2.79 ± 0.464 nM.

In the case of `CC[C@H](C)[C@@H]1C(=O)O[C@H]1C(=O)N[C@H](C(=O)N[C@H](C(=O)NCc1ccccc1)C(C)C)C(C)C` [Compound 11e, (2R,3S)—N—((S)-1-(((S)-1-(benzylamino)-3-methyl-1-oxobutan-2-yl)amino)-3-methyl-1-oxobutan-2-yl)-3-((S)-sec-butyl)-4-oxooxetane-2-carboxamide], the 50% inhibitory concentration (IC50) amounted to 5.4 ± 0.5 nM in series [5]; 2920 ± 210 nM in series [2]; 387 ± 177 nM with RPMI 8226 cells (setting [14]); 1380 ± 106 nM in [3]; 4.5 ± 2.9 nM in series [8] (Table 4, P4 analogues); 814 ± 121 nM in the series with MCF7 cells (setting [15]). In addition, the IC50 in the series on MDA-MB-231 cells (setting [16]) stood at 742 ± 212 nM.

What is called IC50 is the concentration that inhibits the measured activity by half.
